Test results reported in patent US7157495B2, “Hexahydrofuro[2,3-B]furan-3-YL-N-{3-[(1,3-benzodioxol-5-ylsulfonyl)(isobutyl)amino]-1-benzyl-2-hydroxypropyl}carbamate as retroviral protease inhibitor” (Tibotec Pharmaceuticals, Ltd., priority 1999, dated 2007).
Read-outs that look alike come from different tables or passages of the source.

Experiments:
[1] = Oral absorption in rats, serum concentration; assay type: in vivo; settings: single oral dose 20 mg/kg in PEG400 by gavage, read-out: Compound concentration in serum
Procedure: The oral absorption of compound 13 was then measured in rats to determine bioavailability. The compound was administered by gavage to rats, as a single dose of 20 mg/kg in PEG400. Animals were sacrificed at different time points after administration, whole blood was collected and serum prepared by standard methods. Concentration of the compound in serum was determined by titrating the anti-HIV activity present in the sample according to the procedure described above.

HIV-1 strain LAI = experiment: Cellular anti-HIV assay in MT4 cells (MTT); assay type: cell-based; settings: for IC50: read-out: IC50
Procedure: (§1) HIV- or mock-infected MT4 cells were incubated for five days in the presence of various concentrations of the inhibitor. At the end of the incubation period, all HIV-infected cells have been killed by the replicating virus in the control cultures in the absence of any inhibitor. Cell viability is measured by measuring the concentration of MTT, a yellow, water soluble tetrazolium dye that is converted to a purple, water insoluble formazan in the mitochondria of living cells only. Upon solubilization of the resulting formazan crystals with isopropanol, the absorbance of the solution is monitored at 540 nm. The values correlate directly to the number of living cells remaining in the culture at the completion of the five day incubation. The inhibitory activity of the compound was monitored on the virus-infected cells and was expressed as IC50 and IC90. These values represent the amount of the compound required to protect 50% and 90%, respectively, of the cells from the cytopathogenic effect of the virus. The toxicity of the compound was measured on the mock-infected cells and was expressed as CC50, which represents the concentration of compound required to inhibit the growth of the cells by 50%. The select index (SI) (ratio CC50/IC50) is an indication of the selectivity of the anti-HIV activity of the inhibitor.

HIV strain r13024 = experiment: Antiviral spectrum, protease inhibitor resistant strain; assay type: cell-based; settings: strain r13024; L10I, M36I, L63P, A71V, G73S, I84V, L90M
Procedure: as §1
(§2) Because of the increasing emergence of drug resistant HIV strains, compound 13 and compound 14 were tested for its potency against HIV strains harbouring several mutations. These mutations are associated with resistance to protease inhibitors and result in viruses that show various degrees of phenotypic cross-resistance to five of the currently commercially available drugs (Saquinavir, Ritonavir, Nelfinavir, Indinavir and Amprenavir).

HIV strain r13036 = experiment: as above; assay type: cell-based; settings: strain r13036; L10I, L63P, A71V, G73S, L90M
Procedure: as §1, §2

HIV strain r13023 = experiment: as above; assay type: cell-based; settings: strain r13023; L10I, M36I/M, I54V/I, L63P, A71V, G73S, I84V, L90M
Procedure: as §1, §2

HIV strain r13034 = experiment: as above; assay type: cell-based; settings: strain r13034; L10I, M36I, I54V, L63P, A71V, I84V
Procedure: as §1, §2

HIV strain r13030 = experiment: as above; assay type: cell-based; settings: strain r13030; L10V/I, M36I, I54V, L63P, A71V, V82T, L90M
Procedure: as §1, §2

HIV strain r13037 = experiment: as above; assay type: cell-based; settings: strain r13037; L10I, M46I, I54V, L63P, A71T, V77I, V82A, L90M
Procedure: as §1, §2

HIV strain r13027 = experiment: as above; assay type: cell-based; settings: strain r13027; L10M/I, K20R, M36I, L63P, A71V, G73S, V77I, I84V, L90M
Procedure: as §1, §2

HIV strain r13033 = experiment: as above; assay type: cell-based; settings: strain r13033; L10I, M46L, I54V, L63P, A71V, V82A, L90M
Procedure: as §1, §2

HIV strain r13022 = experiment: as above; assay type: cell-based; settings: strain r13022; K20R, M36I, M46I/M, 154V, L63P, A71V/I, V82T, L90M
Procedure: as §1, §2

HIV strain r13031 = experiment: as above; assay type: cell-based; settings: strain r13031; G48V, I54V, V77I, V82A, L90M/L
Procedure: as §1, §2

HIV strain r13025 = experiment: as above; assay type: cell-based; settings: strain r13025; L10I, M46I, L63P, A71V, I84V
Procedure: as §1, §2

HIV strain r13035 = experiment: as above; assay type: cell-based; settings: strain r13035; D30N, L63P, V77I, N88D
Procedure: as §1, §2

HIV strain r13021 = experiment: as above; assay type: cell-based; settings: strain r13021; L10I, K20R, L24I, M36I, I54V, L63P, A71V, V82T, I84V
Procedure: as §1, §2

HIV strain r13029 = experiment: as above; assay type: cell-based; settings: strain r13029; L10I/L, M36I, M46L, L63P, A71V, I84V, N88D, L90M
Procedure: as §1, §2

HIV = experiment: Anti-HIV activity in the presence of human serum proteins (HSA or AAG); assay type: cell-based
Procedure: as §1, with “These values represent the amount of the compound required to protect 50% and 90%, respectively, of the cells from the cytopathogenic effect of the virus. The toxicity of the compound was measured on the mock-infected cells and was expressed as CC50, which represents the concentration of compound required to inhibit the growth of the cells by 50%. The select index (SI) (ratio CC50/IC50) is an indication of the selectivity of the anti-HIV activity of the inhibitor.” left out
Human serum proteins like albumin (HSA) or alpha-1 acid glycoprotein (AAG) are known to bind many drugs, resulting in a possible decrease in the effectiveness of those compounds. In order to determine whether compound 13 would be adversely effected by this binding, the anti-HIV activity of the compound was measured in the presence of physiological concentrations of HSA or AAG, thus evaluating the effect of the binding of the inhibitor to those proteins.

## CC(C)CN(CC(O)C(Cc1ccccc1)NC(=O)OC1COC2OCCC12)S(=O)(=O)c1ccc2c(c1)OCO2 (stereo not shown) [Compound 13, hexahydrofuro[2,3-b]furan-3-yl-N-{3-[(1,3-benzodioxol-5-ylsufonyl)(isobutyl)amino]-1-benzyl-2-hydroxypropyl}carbamate]
[1]; rat, serum, po, 20 mg/kg, 0 minutes after administration
  concentration at 0 min: 0 nM
[1]; rat, serum, po, 20 mg/kg, 60 minutes after administration
  concentration at 60 min: 1000 nM
[1]; rat, serum, po, 20 mg/kg, 180 minutes after administration
  concentration at 180 min: 687 nM
[1]; rat, serum, po, 20 mg/kg, 300 minutes after administration
  concentration at 300 min: 216 nM
[1]; 60 minutes after administration
  concentration at 300 min: 985.8 nM
HIV-1 strain LAI; CC50 on mock-infected MT4 cells / IC50 on HIV-1 LAI
  SI (ratio CC50/IC50): 13,900
HIV-1 strain LAI; Human immunodeficiency virus 1, 120 h, HIV-1 strain LAI, MT4 cells, five days, median value of 12 determinations
  IC90: 2.4 nM
HIV-1 strain LAI; Human immunodeficiency virus 1, MT4, 120 h, HIV-1 strain LAI, MT4 cells, five days
  IC50: 1.1 nM
HIV-1 strain LAI; strain LAI
  IC50: 1.4 nM
HIV strain r13024
  IC50: 8.1 nM
HIV strain r13036
  IC50: 5.4 nM
HIV strain r13023
  IC50: 6.8 nM
HIV strain r13034
  IC50: 8 nM
HIV strain r13030
  IC50: 0.4 nM
HIV strain r13037
  IC50: 0.3 nM
HIV strain r13027
  IC50: 7.4 nM
HIV strain r13033
  IC50: 1.7 nM
HIV strain r13022
  IC50: 1.7 nM
HIV strain r13031
  IC50: 0.5 nM
HIV strain r13025
  IC50: 45.4 nM
HIV strain r13035
  IC50: 0.3 nM
HIV strain r13021
  IC50: 5.5 nM
HIV strain r13029
  IC50: 7 nM
HIV; AAG at a concentration of 2 mg/ml
  decrease of the potency: two to four
HIV; HSA at a concentration of 45 mg/ml
  effect on the potency: no effect
